Reference: PMC4741700 (Oncotarget, 2015)
Like-named read-outs stand apart in the source and are kept apart here. Each block holds one molecule with its values, some of them ahead of it.

How the values were obtained:
primary myeloma explants = experiment: Primary myeloma explant viability; format: cell-based; details: for sensitivity of primary myeloma cells: 3 days in culture
Method: (§1) Figure 6 Susceptibilities of multiple myeloma cell lines and primary explants to SBI compounds A. Cell lines. The indicated human myeloma cell lines were treated with the indicated compounds for 3 days at which point the total viable cell count was determined using the Cell Titer Glo assay method. Shown are the IC50 values that were calculated from standard 10-point dose-response curves (Supplementary Figure 3). B. Primary myeloma explants. Myeloma cells were purified from bone marrow aspirates and maintained in culture for 3 days in the presence of varying concentrations of the indicated compounds [86] IC50 values were calculated from dose-response curves (Supplementary Figure 4).
(§2) Cell lines were propagated in RPMI medium or Dulbecco's modified Eagle's minimal essential medium (D-MEM), containing 10% fetal bovine serum, 100 units/mL penicillin G and 100 μg/mL streptomycin. Proliferation and viability assays, cells were performed in 96 well plates in the presence of serial dilutions of compounds. Relative cell numbers and viability were determined 2-4 days later using MTT or CellTiter Glo (Promega, Inc. Madison, WI) assays as previously described.
Primary myeloma samples were obtained from the Norwegian Myeloma Biobank after obtaining approval from the Regional Ethics Committee.

human myeloma cell lines = experiment: Myeloma cell line viability, Cell Titer Glo; format: cell-based; details: for differential susceptibilities among myeloma cell lines: discounting U266
Method: as §1, §2

[1] = tested on: N-Myc protein in SK-N-BE(2) cells; experiment: N-Myc protein immunoblot in neuroblastoma cells; format: cell-based, human; details: within 24 hr
Method: As positive and negative controls, respectively, parallel cultures were exposed to 60 μM 10058-F4 (+) or to DMSO vehicle only. B. SK-N-BE(2) cells treated as described in A were fixed and stained with Oil Red O to delineate lipid droplets. C. SK-N-BE(2) cells were exposed to the indicated amounts of Myc inhibitors for 5 days either in the concurrent absence or presence of nerve growth factor (NGF: 50 ng/ml). Typical fields of unfixed cells were then photographed. Note the presence of longer and more numerous neurite outgrowths in cells exposed to Myc inhibitors (arrows).
Immunoblotting was performed as previously described. Antibodies included a mouse mAb against human Myc (1:500 dilution: Clone 9E10, Santa Cruz Biotechnology, Inc. Santa Cruz, CA), a mouse mAb against β−actin (1:10,000 dilution: cat. no.3700S Cell Signaling Technology, Inc. Beverly, MA), a mouse mAb against AMPK (1:1000 dilution: catalog no. 2532, Cell Signaling Technology) and a rabbit polyclonal antibody against AMPK phospho-Thr172 (1:1000 dilution, catalog no.2535, Cell Signaling Technologies).

[2] = tested on: NCI-60 cell line collection; experiment: NCI-60 cell line screen; format: cell-based
[3] = tested on: Daudi Burkitt lymphoma cell line; experiment: Proliferation inhibition of Daudi cells; format: cell-based; details: Homo sapiens
Method: as §2

[4] = tested on: HL60 promyelocytic leukemia cell line; experiment: Proliferation inhibition of HL60 cells; format: cell-based; details: Homo sapiens, HL-60
Method: as §2

Myc-Max(S) heterodimers = Myc-Max(S) heterodimers (Homo sapiens, UniProt P01106+P61244); experiment: EMSA, DNA binding by Myc-Max(S) heterodimers; format: biochemical; details: for fold more potent than celastrol: EMSA Myc-Max(S)
Source text: B. Formation of a typical Michael adduct with cysteine as an example (depicted in blue) is shown. […] C. […] Recombinant Myc bHLH-ZIP domain (residues 353-437), and full-length Max(S) and Max(L) were used for EMSAs along with a HEX-tagged, double-stranded oligonucleotide containing a Myc binding E-box element (CACGTG). Max(S) is the 151 residue isoform that homodimerizes efficiently but only binds DNA as a heterodimer in association with Myc. The 160 residue isoform, termed Max(L), that does bind DNA as a homodimer and that closely mimics the Myc-Max(S) association was used as a control. D. Graphical representation of EMSA results from triplicate assays performed as described in C.
(§3) The 83 residue His6-tagged Myc bHLH-ZIP domain (amino acids […]), and full-length His6-tagged Max(S) and His6-tagged Max(L) were expressed and purified as previously described. 20 nmol each of Myc and Max(S) or 40 ng of Max(L) were used for EMSA assays that included 30 nmol of a (HEX)-tagged double-stranded E-box-containing oligonucleotide (IDT, Coralville, IA, USA). Importantly, the Myc protein excluded the two C-terminal amino acids (Cys438 and Ala439) from the final sequence, thus eliminating a potential reaction site for quinone methide-containing triterpenoids.

Max(L) homodimers = biological target: T1, Max(L) homodimers (Homo sapiens, UniProt P61244); experiment: EMSA, DNA binding by Max(L) homodimers; format: biochemical; details: recombinant Max(L)
T1 construct: full-length His6-tagged Max(S) and His6-tagged Max(L) were expressed and purified as previously described; His6; made in house
Source text: B. Formation of a typical Michael adduct with cysteine as an example (depicted in blue) is shown. Note that nucleophilic attack by free sulfhydryl-containing molecules occurs at position 6 of the B ring. C. […] Recombinant Myc bHLH-ZIP domain (residues 353-437), and full-length Max(S) and Max(L) were used for EMSAs along with a HEX-tagged, double-stranded oligonucleotide containing a Myc binding E-box element (CACGTG). Max(S) is the 151 residue isoform that homodimerizes efficiently but only binds DNA as a heterodimer in association with Myc. The 160 residue isoform, termed Max(L), that does bind DNA as a homodimer and that closely mimics the Myc-Max(S) association was used as a control. D. Graphical representation of EMSA results from triplicate assays performed as described in C.
as §3

[5] = 3 days, Cell Titer Glo, read-out: mean IC50 over myeloma cell lines
[6] = EMSA, recombinant Myc bHLH-ZIP and Max(S), read-out: IC50, DNA binding by Myc-Max(S) heterodimers

Sequence of Myc-Max(S) heterodimers (P01106 368-452 limits assumed): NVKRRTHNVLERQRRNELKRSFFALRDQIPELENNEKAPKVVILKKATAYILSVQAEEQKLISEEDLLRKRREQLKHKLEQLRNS
Sequence of Myc-Max(S) heterodimers (P61244 1-151 isoform P61244-2): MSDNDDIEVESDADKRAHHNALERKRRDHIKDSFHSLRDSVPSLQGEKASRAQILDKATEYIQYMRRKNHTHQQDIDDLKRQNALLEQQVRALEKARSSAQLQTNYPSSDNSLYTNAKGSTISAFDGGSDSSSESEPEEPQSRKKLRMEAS
T1 sequence (P61244 whole entry): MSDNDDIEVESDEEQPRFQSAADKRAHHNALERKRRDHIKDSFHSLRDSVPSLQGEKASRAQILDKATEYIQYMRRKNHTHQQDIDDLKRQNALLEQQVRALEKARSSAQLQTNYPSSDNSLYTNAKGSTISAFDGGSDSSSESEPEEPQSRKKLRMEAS

IC50 (human myeloma cell lines; [5]): 21800 nM
Structure (SMILES): CCc1ccc(C=C2SC(=S)NC2=O)cc1 [10058-F4, [Z,E]-5-[4-ethylbenzylidine]-2-thioxothiazolidin-4-one]
sensitivity of primary myeloma cells (primary myeloma explants): the majority were sensitive
differential susceptibilities among myeloma cell lines (human myeloma cell lines): 3-4 fold
N-Myc protein level [1]: declined

Structure (SMILES): C=C(C)C1CCC2(C(=O)O)CCC3(C)C(CCC4C5(C)Cc6nccnc6C(C)(C)C5CCC43C)C12 (stereo not shown) [SBI-0061739]
IC50 ([2]; 7 of 8 cell lines, read-out: IC50 in renal cancer lines): > 2000 nM
IC50 ([2]; 17 cell lines (28%), read-out: IC50 in highly sensitive NCI-60 cell lines): < 2000 nM
IC50 ([2]; all 6 lines, read-out: IC50 in ovarian cancer lines): > 2000 nM
IC50 [3]: 3.19 ± 2.28 µM
IC50 (human myeloma cell lines; Homo sapiens, U-266, 72 h, 3 days, U266 excluded, read-out: mean IC50 over myeloma cell lines disregarding U266): 420 nM
IC50 (human myeloma cell lines; Homo sapiens, 8 of 9 cell lines, read-out: IC50 in 8 of 9 myeloma cell lines): < 1000 nM
IC50 [4]: 0.82 ± 0.23 µM

Structure (SMILES): Cc1sc2c(c1C)C(c1ccc(Cl)cc1)=N[C@@H](CC(=O)OC(C)(C)C)c1nnc(C)n1-2 [JQ1]
sensitivity of primary myeloma cells (primary myeloma explants): resistant
effect against primary myelomas (primary myeloma explants; even at concentrations exceeding 10-20 μM): virtually without effect
IC50 (human myeloma cell lines; [5]): 250 nM
IC50 (human myeloma cell lines; 3 days, U266 excluded, read-out: mean IC50 over myeloma cell lines disregarding U266): 250 nM
fold lower mean IC50 than SBI-0061739 (human myeloma cell lines; U266 excluded): < 2 fold
differential susceptibilities among myeloma cell lines (human myeloma cell lines): 20 fold
factor by which JQ1 is more effective than 10058-F4 (human myeloma cell lines; mean IC50s): ~90

Structure (SMILES): C=C(C)C1CCC2(C(=O)O)CCC3(C)C(CCC4C5(C)Cc6nc7ccccc7nc6C(C)(C)C5CCC43C)C12 (stereo not shown) [SBI-0069272]
IC50 [3]: 14.3 ± 3.2 µM
fold more potent than celastrol (Myc-Max(S) heterodimers): 4-6 fold
IC50 (Myc-Max(S) heterodimers; [6]): 10 to 15 µM
IC50 [4]: 10.8 ± 2.18 µM

Structure (SMILES): CC1(C)CCC2(C(=O)O)CCC3(C)C(=CCC4C5(C)CCC(=O)C(C)(C)C5CCC43C)C2C1 (stereo not shown) [SBI-0640599]
IC50 [3]: 14.2 ± 3.7 µM
fold more potent than celastrol (Myc-Max(S) heterodimers): 4-6 fold
IC50 (Myc-Max(S) heterodimers; [6]): 10 to 15 µM
IC50 [4]: 12 ± 1.28 µM

Structure (SMILES): C=C(C)C1CCC2(C(=O)O)CCC3(C)C(CCC4C5(C)CCC(=O)C(C)(C)C5CCC43C)C12 (stereo not shown) [SBI-0640601]
IC50 [3]: 6.36 ± 1.25 µM
IC50 (Myc-Max(S) heterodimers; [6]): 10 to 15 µM
IC50 [4]: 13.2 ± 1.74 µM

Structure (SMILES): CC1=C(O)C(=O)C=C2C1=CC=C1[C@@]2(C)CC[C@@]2(C)[C@@H]3C[C@](C)(C(=O)O)CC[C@]3(C)CC[C@]12C [Celastrol, celastrol, reference compound]
IC50 [3]: 0.09 ± 0.02 µM
IC50 (Myc-Max(S) heterodimers): 67 ± 2 µM
IC50 [4]: 0.46 ± 0.06 µM
IC50 (Max(L) homodimers): > 140 µM
N-Myc protein level [1]: declined
